Experimental data published in ChEMBL document CHEMBL5465560, “Selectivity Literature for EUbOPEN Chemogenomic Library” (2024).

What was measured:
[1] = target: Serine/threonine-protein kinase PRP4 homolog (Homo sapiens) (UniProt Q13523); test: Selectivity interaction (KinomeScan (DiscoverX)) EUB0000595a PRPF4B; settings: at 10 µM
[2] = target: Serine/threonine-protein kinase RIO2 (Homo sapiens) (UniProt Q9BVS4); test: Selectivity interaction (KinomeScan (DiscoverX)) EUB0000045b RIOK2
[3] = target: T1, Tyrosine-protein kinase JAK3 (Homo sapiens) (UniProt P52333); test: Selectivity interaction (KinomeScan (DiscoverX)) EUB0001079a JAK3; settings: at 1 µM
T1 sequence (whole entry): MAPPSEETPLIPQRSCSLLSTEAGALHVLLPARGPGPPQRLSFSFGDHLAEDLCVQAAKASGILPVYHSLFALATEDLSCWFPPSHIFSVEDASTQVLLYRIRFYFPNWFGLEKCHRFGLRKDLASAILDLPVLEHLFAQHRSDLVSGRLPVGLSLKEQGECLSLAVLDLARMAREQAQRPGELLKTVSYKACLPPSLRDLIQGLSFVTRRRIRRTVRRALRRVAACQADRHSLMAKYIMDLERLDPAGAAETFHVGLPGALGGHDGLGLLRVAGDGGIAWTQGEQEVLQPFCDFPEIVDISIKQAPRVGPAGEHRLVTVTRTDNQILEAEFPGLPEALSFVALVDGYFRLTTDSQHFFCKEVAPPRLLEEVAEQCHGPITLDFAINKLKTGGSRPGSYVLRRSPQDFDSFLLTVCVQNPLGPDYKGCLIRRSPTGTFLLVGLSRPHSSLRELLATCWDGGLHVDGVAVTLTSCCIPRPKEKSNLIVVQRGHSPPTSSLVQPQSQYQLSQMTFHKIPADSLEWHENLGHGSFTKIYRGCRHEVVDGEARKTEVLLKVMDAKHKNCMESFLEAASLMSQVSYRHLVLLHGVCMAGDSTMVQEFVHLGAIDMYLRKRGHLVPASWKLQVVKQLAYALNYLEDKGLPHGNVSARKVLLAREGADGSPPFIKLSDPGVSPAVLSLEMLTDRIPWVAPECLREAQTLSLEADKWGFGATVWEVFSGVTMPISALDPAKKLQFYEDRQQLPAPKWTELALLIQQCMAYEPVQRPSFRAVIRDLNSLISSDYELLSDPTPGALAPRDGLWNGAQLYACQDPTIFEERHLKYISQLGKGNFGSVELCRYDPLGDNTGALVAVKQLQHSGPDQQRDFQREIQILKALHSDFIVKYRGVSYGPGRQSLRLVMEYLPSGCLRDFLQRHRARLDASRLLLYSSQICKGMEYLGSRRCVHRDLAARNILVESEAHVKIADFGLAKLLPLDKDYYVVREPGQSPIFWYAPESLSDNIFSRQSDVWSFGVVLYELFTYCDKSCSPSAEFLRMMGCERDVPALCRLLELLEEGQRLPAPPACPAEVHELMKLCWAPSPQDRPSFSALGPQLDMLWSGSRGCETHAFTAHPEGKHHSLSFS

[4] = target: Receptor-type tyrosine-protein kinase FLT3 (Homo sapiens) (UniProt P36888); test: Selectivity interaction (KinomeScan (DiscoverX)) EUB0001049a FLT3; settings: at 1 µM
Chain of Receptor-type tyrosine-protein kinase FLT3 (Homo sapiens) (P36888 whole entry): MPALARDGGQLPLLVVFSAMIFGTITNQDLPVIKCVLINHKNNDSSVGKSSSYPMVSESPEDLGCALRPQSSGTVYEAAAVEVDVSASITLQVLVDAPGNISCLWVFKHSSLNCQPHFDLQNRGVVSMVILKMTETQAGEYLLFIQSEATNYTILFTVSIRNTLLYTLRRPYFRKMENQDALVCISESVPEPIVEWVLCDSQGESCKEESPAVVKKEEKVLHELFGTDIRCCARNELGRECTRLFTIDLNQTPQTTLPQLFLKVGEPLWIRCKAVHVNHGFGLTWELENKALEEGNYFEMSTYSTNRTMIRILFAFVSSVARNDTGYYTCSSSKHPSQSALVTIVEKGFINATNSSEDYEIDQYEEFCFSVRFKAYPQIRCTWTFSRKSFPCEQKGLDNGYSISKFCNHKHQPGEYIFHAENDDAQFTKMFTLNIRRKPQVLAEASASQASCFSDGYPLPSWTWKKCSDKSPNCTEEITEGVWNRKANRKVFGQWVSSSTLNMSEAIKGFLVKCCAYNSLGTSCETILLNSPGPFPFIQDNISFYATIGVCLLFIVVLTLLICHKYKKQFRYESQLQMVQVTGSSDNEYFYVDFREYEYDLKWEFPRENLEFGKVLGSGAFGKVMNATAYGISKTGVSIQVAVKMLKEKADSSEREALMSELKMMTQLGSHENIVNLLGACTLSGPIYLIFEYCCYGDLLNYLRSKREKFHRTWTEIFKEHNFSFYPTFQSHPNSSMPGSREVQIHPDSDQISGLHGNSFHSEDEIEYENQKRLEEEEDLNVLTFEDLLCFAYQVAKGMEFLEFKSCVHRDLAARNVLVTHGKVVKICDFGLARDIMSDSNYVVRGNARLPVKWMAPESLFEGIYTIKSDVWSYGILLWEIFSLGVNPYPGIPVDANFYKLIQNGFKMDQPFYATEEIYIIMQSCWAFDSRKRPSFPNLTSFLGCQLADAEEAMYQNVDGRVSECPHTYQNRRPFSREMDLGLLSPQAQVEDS

[5] = target: T2, NUAK family SNF1-like kinase 1 (Homo sapiens) (UniProt O60285); test: Selectivity interaction (ProQinase) EUB0000171b NUAK1
T2 sequence (whole entry): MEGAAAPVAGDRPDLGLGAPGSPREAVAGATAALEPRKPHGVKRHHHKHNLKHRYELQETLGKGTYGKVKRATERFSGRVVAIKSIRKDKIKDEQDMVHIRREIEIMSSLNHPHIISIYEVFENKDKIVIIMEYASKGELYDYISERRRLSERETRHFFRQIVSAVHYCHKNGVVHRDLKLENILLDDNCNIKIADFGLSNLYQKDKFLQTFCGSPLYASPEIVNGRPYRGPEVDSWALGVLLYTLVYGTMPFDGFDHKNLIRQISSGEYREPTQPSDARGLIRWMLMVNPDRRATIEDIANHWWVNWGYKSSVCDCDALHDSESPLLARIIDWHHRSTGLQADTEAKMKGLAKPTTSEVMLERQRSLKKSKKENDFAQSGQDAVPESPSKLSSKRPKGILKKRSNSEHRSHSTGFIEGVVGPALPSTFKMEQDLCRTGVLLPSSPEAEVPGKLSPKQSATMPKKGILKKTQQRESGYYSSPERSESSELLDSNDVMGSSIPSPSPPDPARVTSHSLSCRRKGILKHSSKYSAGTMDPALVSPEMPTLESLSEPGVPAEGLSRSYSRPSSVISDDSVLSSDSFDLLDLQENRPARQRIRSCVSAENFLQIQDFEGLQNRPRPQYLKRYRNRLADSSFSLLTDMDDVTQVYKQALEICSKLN

[6] = target: Phosphatidylinositol 4-kinase type 2-alpha (Homo sapiens) (UniProt Q9BTU6); test: Selectivity interaction (ProQinase) EUB0000171b PI4K2A
Chain of Phosphatidylinositol 4-kinase type 2-alpha (Homo sapiens) (Q9BTU6 whole entry): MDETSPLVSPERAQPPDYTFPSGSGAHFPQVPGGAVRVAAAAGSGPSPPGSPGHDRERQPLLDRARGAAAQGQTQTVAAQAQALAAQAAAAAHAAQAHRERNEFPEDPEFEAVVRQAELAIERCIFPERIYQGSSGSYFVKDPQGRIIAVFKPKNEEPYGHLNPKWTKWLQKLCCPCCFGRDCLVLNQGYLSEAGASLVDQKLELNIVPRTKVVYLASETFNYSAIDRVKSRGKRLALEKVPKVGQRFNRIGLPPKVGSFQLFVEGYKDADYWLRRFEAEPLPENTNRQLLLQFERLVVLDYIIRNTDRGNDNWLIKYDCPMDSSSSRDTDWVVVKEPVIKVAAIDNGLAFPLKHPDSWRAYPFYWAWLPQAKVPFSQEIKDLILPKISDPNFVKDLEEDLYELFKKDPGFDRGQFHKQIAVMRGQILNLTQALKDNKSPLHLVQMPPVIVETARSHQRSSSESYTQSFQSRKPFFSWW

[7] = test system: Epidermal growth factor receptor (Homo sapiens), P00533 [UNDEFINED MUTATION]; test: Selectivity interaction (KinomeScan (DiscoverX)) EUB0000607a EGFR; settings: at 10 µM
Chain of Epidermal growth factor receptor (Homo sapiens), P00533 [UNDEFINED MUTATION] (P00533 whole entry, looked up, change not shown): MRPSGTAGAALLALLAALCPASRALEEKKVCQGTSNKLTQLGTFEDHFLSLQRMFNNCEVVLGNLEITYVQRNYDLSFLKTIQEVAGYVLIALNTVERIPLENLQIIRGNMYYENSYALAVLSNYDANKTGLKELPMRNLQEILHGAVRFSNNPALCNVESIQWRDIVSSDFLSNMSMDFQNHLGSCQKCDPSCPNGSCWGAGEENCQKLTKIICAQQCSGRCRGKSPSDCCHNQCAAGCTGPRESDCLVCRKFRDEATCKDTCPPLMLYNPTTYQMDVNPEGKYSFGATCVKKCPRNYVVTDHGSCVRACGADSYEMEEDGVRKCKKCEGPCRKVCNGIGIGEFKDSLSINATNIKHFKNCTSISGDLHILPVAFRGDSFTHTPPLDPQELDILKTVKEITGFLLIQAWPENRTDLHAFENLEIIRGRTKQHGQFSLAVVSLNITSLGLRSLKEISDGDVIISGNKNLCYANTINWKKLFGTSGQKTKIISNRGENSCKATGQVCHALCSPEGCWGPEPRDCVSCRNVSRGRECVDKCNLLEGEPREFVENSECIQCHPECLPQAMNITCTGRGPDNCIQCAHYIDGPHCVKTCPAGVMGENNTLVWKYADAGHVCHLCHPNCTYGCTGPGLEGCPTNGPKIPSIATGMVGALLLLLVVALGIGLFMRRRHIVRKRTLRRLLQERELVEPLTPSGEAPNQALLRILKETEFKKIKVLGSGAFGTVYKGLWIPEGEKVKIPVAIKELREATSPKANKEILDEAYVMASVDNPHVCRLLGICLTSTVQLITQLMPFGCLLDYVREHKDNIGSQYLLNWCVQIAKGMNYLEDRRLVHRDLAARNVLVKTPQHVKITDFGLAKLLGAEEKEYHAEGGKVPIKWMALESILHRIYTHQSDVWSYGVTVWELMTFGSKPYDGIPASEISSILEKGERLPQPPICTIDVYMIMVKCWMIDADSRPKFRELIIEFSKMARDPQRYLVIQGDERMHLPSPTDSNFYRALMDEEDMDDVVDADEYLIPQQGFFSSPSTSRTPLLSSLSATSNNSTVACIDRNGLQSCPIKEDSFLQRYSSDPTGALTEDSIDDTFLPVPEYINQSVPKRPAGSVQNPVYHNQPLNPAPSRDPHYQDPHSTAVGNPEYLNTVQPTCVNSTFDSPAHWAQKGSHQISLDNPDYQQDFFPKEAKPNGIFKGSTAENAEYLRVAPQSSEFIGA

[8] = target: Tyrosine-protein kinase CSK (Homo sapiens) (UniProt P41240); test: Selectivity interaction (SelectScreen profiling (Invitrogen)) EUB0000607a CSK; settings: at 2 µM
Chain of Tyrosine-protein kinase CSK (Homo sapiens) (P41240 2-450 limits assumed): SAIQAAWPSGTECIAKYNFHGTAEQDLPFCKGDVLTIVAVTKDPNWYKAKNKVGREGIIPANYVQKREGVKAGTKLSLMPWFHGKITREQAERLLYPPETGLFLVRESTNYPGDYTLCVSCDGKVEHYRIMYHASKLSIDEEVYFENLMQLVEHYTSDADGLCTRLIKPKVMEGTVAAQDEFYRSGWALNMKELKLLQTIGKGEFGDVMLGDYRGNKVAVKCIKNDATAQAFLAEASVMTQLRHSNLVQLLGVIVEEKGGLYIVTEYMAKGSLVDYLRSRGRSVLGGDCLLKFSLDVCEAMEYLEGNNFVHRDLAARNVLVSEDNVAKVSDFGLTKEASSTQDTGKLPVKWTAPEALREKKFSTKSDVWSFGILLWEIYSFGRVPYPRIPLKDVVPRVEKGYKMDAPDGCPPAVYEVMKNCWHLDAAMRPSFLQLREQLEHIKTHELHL

[9] = target: Protein kinase C delta type (Homo sapiens) (UniProt Q05655); test: Selectivity interaction (Kinase panel (Invitrogen)) EUB0000639a PRKCD; settings: at 200 nM
Chain of Protein kinase C delta type (Homo sapiens) (Q05655 whole entry, looked up): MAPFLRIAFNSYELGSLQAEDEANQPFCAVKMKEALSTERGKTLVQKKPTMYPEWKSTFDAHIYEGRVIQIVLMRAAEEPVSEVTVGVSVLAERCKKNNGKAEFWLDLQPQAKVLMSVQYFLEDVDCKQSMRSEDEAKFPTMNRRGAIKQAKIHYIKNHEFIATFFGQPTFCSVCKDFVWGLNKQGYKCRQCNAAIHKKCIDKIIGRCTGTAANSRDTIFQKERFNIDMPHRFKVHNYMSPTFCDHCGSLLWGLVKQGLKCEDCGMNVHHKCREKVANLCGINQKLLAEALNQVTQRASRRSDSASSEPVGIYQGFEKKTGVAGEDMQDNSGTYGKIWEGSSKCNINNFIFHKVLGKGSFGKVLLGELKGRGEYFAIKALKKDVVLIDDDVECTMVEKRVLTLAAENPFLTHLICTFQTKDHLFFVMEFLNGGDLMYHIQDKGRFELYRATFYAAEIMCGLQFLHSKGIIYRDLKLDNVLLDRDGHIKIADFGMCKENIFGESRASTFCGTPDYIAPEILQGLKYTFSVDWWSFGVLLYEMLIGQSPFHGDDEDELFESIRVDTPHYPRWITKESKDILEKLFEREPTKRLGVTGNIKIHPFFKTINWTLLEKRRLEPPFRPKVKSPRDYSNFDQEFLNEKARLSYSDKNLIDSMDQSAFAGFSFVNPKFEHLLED

[10] = target: Mitogen-activated protein kinase 9 (Homo sapiens, UniProt P45984); test: Selectivity interaction (ActivX KiNativ screen (kinase selectivity in THP-1 cell lysates)) EUB0000639a MAPK9; format: subcellular; settings: lysate, at 1 µM
Chain of Mitogen-activated protein kinase 9 (P45984 whole entry, looked up): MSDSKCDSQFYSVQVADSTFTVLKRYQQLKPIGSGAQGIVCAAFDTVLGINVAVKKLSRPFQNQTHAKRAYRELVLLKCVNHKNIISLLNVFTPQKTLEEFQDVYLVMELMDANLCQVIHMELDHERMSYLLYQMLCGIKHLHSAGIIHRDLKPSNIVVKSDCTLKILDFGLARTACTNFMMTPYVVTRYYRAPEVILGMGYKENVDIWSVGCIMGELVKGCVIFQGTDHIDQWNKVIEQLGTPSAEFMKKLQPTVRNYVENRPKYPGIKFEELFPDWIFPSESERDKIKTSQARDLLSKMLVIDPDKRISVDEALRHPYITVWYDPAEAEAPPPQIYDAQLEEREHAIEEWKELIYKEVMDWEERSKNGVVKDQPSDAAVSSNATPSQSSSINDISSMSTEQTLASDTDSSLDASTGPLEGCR

[11] = target: T3, Mitogen-activated protein kinase 12 (Homo sapiens) (UniProt P53778); settings: at 10 µM
T3 sequence (whole entry): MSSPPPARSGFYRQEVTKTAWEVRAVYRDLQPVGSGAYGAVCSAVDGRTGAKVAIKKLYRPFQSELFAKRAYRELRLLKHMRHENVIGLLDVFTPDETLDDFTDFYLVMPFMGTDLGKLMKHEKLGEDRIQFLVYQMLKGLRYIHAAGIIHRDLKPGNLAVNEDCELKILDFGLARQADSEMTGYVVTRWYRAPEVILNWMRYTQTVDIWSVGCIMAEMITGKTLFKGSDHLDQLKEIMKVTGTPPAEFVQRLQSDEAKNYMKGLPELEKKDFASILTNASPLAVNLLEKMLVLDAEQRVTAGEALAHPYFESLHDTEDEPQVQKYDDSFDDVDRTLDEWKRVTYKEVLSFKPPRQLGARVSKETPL

[12] = target: Casein kinase I isoform gamma-1 (Homo sapiens) (UniProt Q9HCP0); test: Selectivity interaction (Ambit KINOMEscan and KiNATiv profiling in Jurkat cells) EUB0000090b CSNK1G1; format: cell-based; settings: at 1 µM

Chain of Serine/threonine-protein kinase RIO2 (Homo sapiens) (Q9BVS4 whole entry, looked up): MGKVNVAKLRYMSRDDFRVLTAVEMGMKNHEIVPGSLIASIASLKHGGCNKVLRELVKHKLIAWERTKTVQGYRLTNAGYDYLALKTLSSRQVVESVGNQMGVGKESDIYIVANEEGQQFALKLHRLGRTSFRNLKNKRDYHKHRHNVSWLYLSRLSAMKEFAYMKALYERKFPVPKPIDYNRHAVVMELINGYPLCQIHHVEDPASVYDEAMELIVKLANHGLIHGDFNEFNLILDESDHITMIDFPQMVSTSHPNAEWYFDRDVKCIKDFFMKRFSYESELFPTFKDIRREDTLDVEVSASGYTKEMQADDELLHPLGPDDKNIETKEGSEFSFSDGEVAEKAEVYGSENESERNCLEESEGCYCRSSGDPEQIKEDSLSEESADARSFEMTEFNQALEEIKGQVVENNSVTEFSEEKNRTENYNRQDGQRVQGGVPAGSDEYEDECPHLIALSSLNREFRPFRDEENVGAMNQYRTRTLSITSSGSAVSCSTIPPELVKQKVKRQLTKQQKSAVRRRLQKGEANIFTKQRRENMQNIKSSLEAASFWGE

Compound: COCC(=O)NC/C=C/c1ccc2ncnc(Nc3ccc(Oc4ccc(C)nc4)c(C)c3)c2c1 [CP-724714]
- % of control [1]: 93%

Compound: C=CC(=O)Nc1cc(-n2c(=O)ccc3cnc4ccc(-c5ccc(NS(C)(=O)=O)cc5)cc4c32)ccc1C
- % of control ([2]; at 1 µM): 66%
- % of control ([2]; at 10 µM): 43%

Compound: Nc1cnc(N2CCc3cc(S(=O)(=O)Nc4c(F)cc(Cl)cc4F)cc(N4CCCC4=O)c32)nc1 [TP-020n]
- % of control [3]: 100%

Compound: COc1cc(Nc2nc(C)cc(-c3cnn4nc(OC)ccc34)n2)cc(C(F)(F)F)c1
- % of control [4]: 64%

Compound: C=CC(=O)Nc1cccc(C(=O)Nc2ccc(Nc3cc(-c4[nH]c(SC)nc4C)ccn3)cc2)c1
- % of control ([5]; at 1 µM): 97%
- % of control ([5]; at 5 µM): 88%
- % of control ([6]; at 1 µM): 117%
- % of control ([6]; at 5 µM): 133%

Compound: CNC(=O)Nc1ccc(-c2nc(N3CC4CCC(C3)O4)c3cnn(C4CCC5(CC4)OCCO5)c3n2)cc1
- % of control [7]: 62%
- % of inhibition [8]: -1%

Compound: CC[C@@H]1[C@H](F)C(=O)N[C@@H]1COc1nccc2cc(C(N)=O)c(OC)cc12 [ZIMLOVISERTIB]
- % of inhibition [9]: -5.07%
- % of inhibition [10]: -5.9%

Compound: CCN(CC)CCCCNc1ncc2cc(-c3cc(OC)cc(OC)c3)c(NC(=O)NC(C)(C)C)nc2n1
- % of control [11]: 100%

Compound: CN(C)C/C=C/C(=O)Nc1ccc(C(=O)N2CCCC(Nc3ncc(Cl)c(-c4c[nH]c5ccccc45)n3)C2)cc1 (stereo not given)
- % of control [12]: 94%
